Measurements from patent US9000022B2 (Exelixis Patent Company LLC, priority 2005, dated 2015).

Test system: LXRα and/or LXRβ
Assay: Co-transfection assay (LXRE luciferase reporter, CV-1 cells)
Type: cell-based, human
Conditions: tested as described in Example 33; IC50 or EC50 for LXRα and/or LXRβ, isoform not specified; read-out: activity (IC50 or EC50 for LXR)
Text: To measure the ability of compounds to activate or inhibit the transcriptional activity of LXR in a cell based assay, the co-transfection assay was used. It has been shown that LXR functions as a heterodimer with RXR. For the co-transfection assay, expression plasmids for LXR and RXR are introduced via transient transfection into mammalian cells along with a luciferase reporter plasmid that contains one copy of a DNA sequence that is bound by LXR-RXR heterodimers (LXRE; Willy, P. et. al. 1995). Treatment of transfected cells with an LXR agonist increases the transcriptional activity of LXR, which is measured by an increase in luciferase activity.
CV-1 African Green Monkey Kidney Cells Co-transfection expression plasmids, comprising full-length LXRα (pCMX-h LXRα, LXRβ (pCMX-hLXRβ), or RXRα (pCMX-RXR), reporter plasmid (LXREx1-Tk-Luciferase), and control (pCMX-Galactosidase expression vector) (Willey et al. Genes & Development 9 1033-1045 (1995)). Transfection reagent such as FuGENE6 (Roche). 1× Cell lysis buffer (1% Triton X 100 (J T Baker X200-07), 10% Glycerol (J T Baker M778-07), 5 mM Ditriotreitol (Quantum Bioprobe DTT03; add fresh before lysing), 1 mM EGTA (Ethylene Glycol-bis(B-Amino ethyl ether)-N,N,N′,N′-Tetracetic Acid) (Sigma E-4378), 25 mM Tricine (ICN 807420) pH 7.8) 1× Luciferase assay buffer (pH at 7.8) (0.73 mM ATP, 22.3 mM Tricine, 0.11 mM EDTA, 33.3 mM DTT) 1× Luciferrin/CoA (11 mM Luciferin, 3.05 mM Coenzyme A, 10 mM HEPES)
CV-1 cells were prepared 24 hours prior to the experiment by plating them into T-175 flasks or 500 cm^2 dishes in order to achieve 70-80% confluency on the day of the transfection. The number of cells to be transfected was determined by the number of plates to be screened. Each 384 well plate requires 1.92×10^6 cells or 5000 cells per well. DNA Transfection Reagent was prepared by mixing the required plasmid DNAs with a cationic lipid transfection reagent FuGENE6 (Roche) by following the instructions provided with the reagents. Optimal DNA amounts were determined empirically per cell line and size of vessel to be transfected. 10-12 mL of media was added to the DNA Transfection Reagent and this mixture was added to the cells after aspirating media from the T175 cm^2 flask. Cells were then incubated at least 5 hours at 37° C. to prepare screening cells.
Luciferase assay reagent was prepared by combining before use (per 10 mL): 10 mL 1× Luciferase assay buffer; 0.54 mL of 1× Luciferrin/CoA; 0.54 mL of 0.2 M Magnesium sulfate
Assay plates were prepared by dispensing 5 μL, of compound per well of a 384 well plate to achieve final compound concentration of 10 μM and no more than 1% DMSO. Media was removed from the screening cells, the cells trypsinized, harvested cells by centrifugation, counted, and plated at a density of approximately 5000 cells per well in the 384 well assay plate prepared above in a volume of about 45 μL. Assay plates containing both compounds and screening cells (50 μL in total volume) were incubated for 20 hours at 37° C.
After incubation with compounds, media was removed from the cells and lysis buffer (30 μL/well) added. After 30 minutes at ambient temperature, luciferase assay buffer (30 μL/well) was added and the assay plates read on a luminometer (PE Biosystems Northstar reader with on-board injectors, or equivalent). Plates were read immediately after addition of luciferase assay buffer.
The LXR/LNRE co-transfection assay can be used to establish the EC50/IC50 values for potency and percent activity or inhibition for efficacy. Efficacy defines the activity of a compound relative to a high control ((N-(3-((4-fluorophenyl)-(naphthalene-2-sulfonyl)amino)propyl)-2,2-dimethylpropionamide)) or a low control (DMSO/vehicle). The dose response curves are generated from an 8 point curve with concentrations differing by ½ LOG units. Each point represents the average of 4 wells of data from a 384 well plate. […]

SMILES | IC50 or EC50 (potency, activation or inhibition)
Cc1c(Cl)cccc1-c1nc(C(C)(C)O)cn1-c1ccc(-c2ccc(CO)c(S(C)(=O)=O)c2)cc1F [Example 120, 2-(2-(3-chloro-2-methylphenyl)-1-(3-fluoro-4′-(hydroxymethyl)-3′-(methylsulfonyl)biphenyl-4-yl)-1H-imidazol-4-yl)propan-2-ol] | < 1 µM
CC(C)(O)c1cn(-c2ccc(-c3cccc(S(C)(=O)=O)c3)cc2F)c(-c2cccc(F)c2Cl)n1 [Example 123, 2-(2-(2-chloro-3-fluorophenyl)-1-(3-fluoro-3′-(methylsulfonyl)biphenyl-4-yl)-1H-imidazol-4-yl)propan-2-ol] | < 1 µM
CS(=O)(=O)Nc1cccc(-c2ccc(-n3cc(C(F)(F)F)nc3-c3ccccc3C(F)(F)F)cc2)c1 [Example 375, N-(4′-{4-(trifluoromethyl)-2-[2-(trifluoromethyl)phenyl]-1H-imidazol-1-yl}biphenyl-3-yl)methane-sulfonamide] | < 1 µM
CC(C)(O)c1cn(-c2ccc(-c3ccc(CO)c(S(C)(=O)=O)c3)cc2)c(CCc2ccccc2Cl)n1 [Example 29] | < 1 µM
CC(C)(O)c1cn(-c2c(Cl)cccc2Cl)c(-c2ccc(-c3cccc(S(C)(=O)=O)c3)s2)n1 [Example 44, 2-(1-(2,6-dichlorophenyl)-2-(5-(3-(methylsulfonyl)phenyl)thiophen-2-yl)-1H-imidazol-4-yl)propan-2-ol] | 1 to 10 µM
CC(C)(O)c1cn(-c2ccc(-c3ccc(C(N)=O)c(S(C)(=O)=O)c3)cc2Cl)c(-c2c(F)cccc2Cl)n1 [Example 453] | 1 to 10 µM
NS(=O)(=O)c1cccc(-c2ccc(-n3cc(C(F)(F)F)nc3-c3ccccc3C(F)(F)F)cc2)c1 [Example 365, 4′-{4-(trifluoromethyl)-2-[2-(trifluoromethyl)phenyl]-1H-imidazol-1-yl}biphenyl-3-sulfonamide] | < 1 µM
CCC(O)(CC)c1cn(-c2ccc(-c3cccc(S(C)(=O)=O)c3)cc2)c(-c2c(Cl)cccc2Cl)n1 [Example 74, 3-(2-(2,6-dichlorophenyl)-1-(3′-(methylsulfonyl)biphenyl-4-yl)-1H-imidazol-4-yl)pentan-3-ol] | < 1 µM
CS(=O)(=O)c1cccc(-c2ccc(-n3cc(C(=O)NCC(F)(F)F)nc3-c3c(Cl)cccc3Cl)cc2)c1 [Example 87, 2-(2,6-dichlorophenyl)-1-(3′-(methyl-sulfonyl)biphenyl-4-yl)-4-(2,2,2-trifluoroethyl)-1H-imidazole-4-carboxamide] | < 1 µM
CS(=O)(=O)c1cccc(-c2ccc(-n3cc(C(=O)NCC(F)(F)F)nc3-c3ccccc3Cl)cc2)c1 [Example 397, 2-(2-chlorophenyl)-1-[3′-(methyl-sulfonyl)biphenyl-4-yl]-N-(2,2,2-trifluoroethyl)-1H-imidazole-4-carboxamide] | < 1 µM
CCS(=O)(=O)c1cccc(-c2ccc(-n3cc(C(C)(C)O)nc3-c3c(F)cccc3F)c(Cl)c2)c1 [Example 158, 2-(1-(3-chloro-3′-(ethyl-sulfonyl)biphenyl-4-yl)-2-(2,6-difluorophenyl)-1H-imidazol-4-yl)propan-2-ol] | < 1 µM
CC(C)(O)c1cn(-c2ccc(-c3ccc(CO)c(S(C)(=O)=O)c3)cc2)c(-c2ccccc2C(F)(F)F)n1 [Example 400, 2-{1-[4′-(hydroxymethyl)-3′-(methylsulfonyl)biphenyl-4-yl]-2-[2-(trifluoromethyl)phenyl]-1H-imidazol-4-yl}propan-2-ol] | < 1 µM
CCS(=O)(=O)c1cccc(-c2ccc(-n3cc(C(C)(C)O)nc3-c3ccccc3C(F)(F)F)c(Cl)c2)c1 [Example 136, 2-(1-(3-chloro-3′-(ethyl-sulfonyl)biphenyl-4-yl)-2-(2-(trifluoromethyl)phenyl)-1H-imidazol-4-yl)propan-2-ol] | < 1 µM
CCOC(=O)c1cn(-c2ccc(-c3cccc(S(C)(=O)=O)c3)cc2Cl)c(-c2c(Cl)cccc2Cl)n1 [Example 68, ethyl 1-(3-chloro-3′-(methyl-sulfonyl)biphenyl-4-yl)-2-(2,6-dichlorophenyl)-1H-imidazole-4-carboxylate] | < 1 µM
CCOC(=O)c1cn(-c2ccc(-c3cccc(S(C)(=O)=O)c3)cc2)c(-c2ccccc2C(F)(F)F)n1 [Example 367] | < 1 µM
CC(C)(CO)NC(=O)c1cn(-c2ccc(-c3cccc(S(C)(=O)=O)c3)cc2Cl)c(-c2c(Cl)cccc2Cl)n1 [Example 463, 1-(3-chloro-3′-(methylsulfonyl)biphenyl-4-yl)-2-(2,6-dichlorophenyl)-N-(1-hydroxy-2-methylpropan-2-yl)-1H-imidazole-4-carboxamide] | < 1 µM
CCS(=O)(=O)c1cccc(-c2ccc(-n3cc(C(C)(C)O)nc3-c3cccc(F)c3Cl)c(Cl)c2)c1 [Example 152, 2-(1-(3-chloro-3′-(ethyl-sulfonyl)biphenyl-4-yl)-2-(2-chloro-3-fluorophenyl)-1H-imidazol-4-yl)propan-2-ol] | < 1 µM
CNS(=O)(=O)c1cccc(-c2ccc(-n3cc(C(C)(C)O)nc3-c3c(Cl)cccc3Cl)cc2)c1 [Example 108, 4′-(2-(2,6-dichlorophenyl)-4-(2-hydroxypropan-2-yl)-1H-imidazol-1-yl)-N-methylbiphenyl-3-sulfonamide] | < 1 µM
CC(C)(O)c1cn(-c2ccc(-c3cccc(S(C)(=O)=O)c3)cc2)c(-c2cccc(C(F)(F)F)c2)n1 [Example 392, 2-{1-[3′-(methylsulfonyl)biphenyl-4-yl]-2-[3-(trifluoromethyl)phenyl]-1H-imidazol-4-yl}propan-2-ol] | < 1 µM
CCOC(=O)c1cn(-c2ccc(-c3cccc(S(C)(=O)=O)c3)cc2)c(-c2ccccc2)n1 [Example 376, ethyl 1-[3′-(methylsulfonyl)biphenyl-4-yl]-2-phenyl-1H-imidazole-4-carboxylate] | < 1 µM
CN(C)c1cccc(F)c1-c1nc(C(C)(C)O)cn1-c1ccc(-c2cccc(S(C)(=O)=O)c2)cc1 [Example 90, 2-(2-(2-(dimethylamino)-6-fluoro-phenyl)-1-(3′-(methylsulfonyl)biphenyl-4-yl)-1H-imidazol-4-yl)propan-2-ol] | < 1 µM
CC(C)(O)c1cn(-c2ccc(-c3cccc(N)c3)cc2)c(-c2ccccc2Cl)n1 [Example 405, 2-[1-(3′-aminobiphenyl-4-yl)-2-(2-chlorophenyl)-1H-imidazol-4-yl]propan-2-ol] | 1 to 10 µM
C/C(=N\O)c1cn(-c2ccc(-c3cccc(S(C)(=O)=O)c3)cc2)c(-c2ccccc2Cl)n1 [Example 408, 1-{2-(2-chlorophenyl)-1-[3′-(methylsulfonyl)biphenyl-4-yl]-1H-imidazol-4-yl}ethanone oxime] | < 1 µM
CC(C)c1ccccc1-c1nc(C(C)(C)O)cn1-c1ccc(-c2cccc(S(C)(=O)=O)c2)cc1 [Example 94, 2-(2-(2-isopropylphenyl)-1-(3′-(methylsulfonyl)biphenyl-4-yl)-1H-imidazol-4-yl)propan-2-ol] | < 1 µM
